Experimental data as given in ChEMBL document CHEMBL1201862, “PubChem BioAssay data set” (2004).
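Exposure lasted 48 hours, with cells grown in 96-well plates and compounds tested at five concentrations. GI50 is the concentration that inhibits growth by half.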 Calls of active or inactive are those of the source. No stated cut-off is given here; in the data, active = GI50 up to about 1.1 µM and inactive = higher.

Legend:
Experiment in all cases: DTP human tumour cell line panel, 48 h
NCI/ADR-RES = test system: NCI/ADR-RES
CAKI-1 = test system: CAKI-1
K562 = test system: K562
Malme-3M = test system: Malme-3M
MCF7 = test system: MCF7
A498 = test system: A498
CCRF-CEM = test system: CCRF-CEM
UACC-62 = test system: UACC-62
MOLT-4 = test system: MOLT-4
T47D = test system: T47D
HOP-62 = test system: HOP-62
HCC 2998 = test system: HCC 2998
HCT-116 = test system: HCT-116
MDA-MB-231 = test system: MDA-MB-231
SK-MEL-5 = test system: SK-MEL-5
SNB-75 = test system: SNB-75
SW-620 = test system: SW-620
SN12C = test system: SN12C
TK-10 = test system: TK-10
RXF 393 = test system: RXF 393
SR = test system: SR
NCI-H23 = test system: NCI-H23
OVCAR-4 = test system: OVCAR-4
HOP-92 = test system: HOP-92
SK-OV-3 = test system: SK-OV-3
HCT-15 = test system: HCT-15
RPMI-8226 = test system: RPMI-8226
NCI-H460 = test system: NCI-H460
COLO 205 = test system: COLO 205
Hs-578T = test system: Hs-578T
MDA-N = test system: MDA-N
DU-145 = test system: DU-145
BT-549 = test system: BT-549
UO-31 = test system: UO-31
MDA-MB-435 = test system: MDA-MB-435
SF-295 = test system: SF-295
PC-3 = test system: PC-3
UACC-257 = test system: UACC-257
M14 = test system: M14
OVCAR-3 = test system: OVCAR-3
OVCAR-8 = test system: OVCAR-8
SNB-19 = test system: SNB-19
U-251 = test system: U-251
HT-29 = test system: HT-29
KM12 = test system: KM12
LOX IMVI = test system: LOX IMVI
SK-MEL-28 = test system: SK-MEL-28
IGROV-1 = test system: IGROV-1
SK-MEL-2 = test system: SK-MEL-2
NCI-H226 = test system: NCI-H226
HL-60 = test system: HL-60
OVCAR-5 = test system: OVCAR-5
786-0 = test system: 786-0
EKVX = test system: EKVX
ACHN = test system: ACHN
A549 = test system: A549
SF-539 = test system: SF-539
SF-268 = test system: SF-268
NCI-H522 = test system: NCI-H522

## Cc1ccc(S(N)(C(=O)Nc2cccc3ccccc23)[N+](=O)[O-])cc1 (stereo unspecified)
NCI/ADR-RES
  GI50: > 100 µM (inactive)
CAKI-1
  GI50: > 100 µM (inactive)
K562
  GI50: 55 µM (inactive)
Malme-3M
  GI50: > 100 µM (inactive)
MCF7
  GI50: 59.2 µM (inactive)
A498
  GI50: > 100 µM (inactive)
CCRF-CEM
  GI50: 42.3 µM (inactive)
UACC-62
  GI50: > 100 µM (inactive)
MOLT-4
  GI50: 29.5 µM (inactive)
T47D
  GI50: 46.2 µM (inactive)
HOP-62
  GI50: > 100 µM (inactive)
HCC 2998
  GI50: > 100 µM (inactive)
HCT-116
  GI50: 66.7 µM (inactive)
MDA-MB-231
  GI50: 36.6 µM (inactive)
SK-MEL-5
  GI50: 93.3 µM (inactive)
SNB-75
  GI50: > 100 µM (inactive)
SW-620
  GI50: > 100 µM (inactive)
SN12C
  GI50: > 100 µM (inactive)
TK-10
  GI50: 72.4 µM (inactive)
RXF 393
  GI50: > 100 µM (inactive)
SR
  GI50: 58.9 µM (inactive)
NCI-H23
  GI50: > 100 µM (inactive)
OVCAR-4
  GI50: > 100 µM (inactive)
HOP-92
  GI50: > 100 µM (inactive)
SK-OV-3
  GI50: > 100 µM (inactive)
HCT-15
  GI50: > 100 µM
RPMI-8226
  GI50: 48.6 µM (inactive)
NCI-H460
  GI50: > 100 µM (inactive)
COLO 205
  GI50: > 100 µM (inactive)
Hs-578T
  GI50: > 100 µM (inactive)
MDA-N
  GI50: > 100 µM (inactive)
DU-145
  GI50: 68.2 µM (inactive)
BT-549
  GI50: > 100 µM (inactive)
UO-31
  GI50: 35.7 µM (inactive)
MDA-MB-435
  GI50: > 100 µM (inactive)
SF-295
  GI50: 89.7 µM (inactive)
PC-3
  GI50: 50.4 µM (inactive)
UACC-257
  GI50: > 100 µM (inactive)
M14
  GI50: > 100 µM (inactive)
OVCAR-3
  GI50: 61.8 µM (inactive)
OVCAR-8
  GI50: > 100 µM (inactive)
SNB-19
  GI50: 92.5 µM (inactive)
U-251
  GI50: > 100 µM (inactive)
HT-29
  GI50: > 100 µM (inactive)
KM12
  GI50: > 100 µM (inactive)
LOX IMVI
  GI50: > 100 µM (inactive)
SK-MEL-28
  GI50: > 100 µM (inactive)
IGROV-1
  GI50: > 100 µM (inactive)
SK-MEL-2
  GI50: > 100 µM (inactive)
NCI-H226
  GI50: > 100 µM (inactive)
HL-60
  GI50: 39.3 µM (inactive)
OVCAR-5
  GI50: > 100 µM (inactive)

## COc1ccc2c(c1)C(=O)[C@@](Nc1ccc(C=O)cc1)(OC)[C@@](OC)(c1ccc([N+](=O)[O-])cc1)O2
786-0
  GI50: > 10 µM (inactive)
NCI/ADR-RES
  GI50: > 10 µM (inactive)
CAKI-1
  GI50: > 10 µM (inactive)
K562
  GI50: > 10 µM (inactive)
Malme-3M
  GI50: > 10 µM (inactive)
MCF7
  GI50: > 10 µM (inactive)
A498
  GI50: > 10 µM (inactive)
CCRF-CEM
  GI50: > 10 µM (inactive)
UACC-62
  GI50: > 10 µM (inactive)
MOLT-4
  GI50: > 10 µM (inactive)
EKVX
  GI50: > 10 µM (inactive)
T47D
  GI50: 5.96 µM (inactive)
HOP-62
  GI50: > 10 µM (inactive)
HCC 2998
  GI50: > 10 µM (inactive)
HCT-116
  GI50: > 10 µM (inactive)
MDA-MB-231
  GI50: > 10 µM (inactive)
SK-MEL-5
  GI50: > 10 µM (inactive)
SNB-75
  GI50: 3.91 µM (inactive)
SW-620
  GI50: > 10 µM (inactive)
SN12C
  GI50: > 10 µM (inactive)
TK-10
  GI50: > 10 µM (inactive)
RXF 393
  GI50: > 10 µM (inactive)
SR
  GI50: > 10 µM (inactive)
NCI-H23
  GI50: > 10 µM (inactive)
OVCAR-4
  GI50: > 10 µM (inactive)
SK-OV-3
  GI50: > 10 µM (inactive)
HCT-15
  GI50: > 10 µM
RPMI-8226
  GI50: > 10 µM (inactive)
NCI-H460
  GI50: > 10 µM (inactive)
COLO 205
  GI50: > 10 µM (inactive)
Hs-578T
  GI50: > 10 µM (inactive)
MDA-N
  GI50: > 10 µM (inactive)
DU-145
  GI50: > 10 µM (inactive)
BT-549
  GI50: > 10 µM (inactive)
UO-31
  GI50: > 10 µM (inactive)
MDA-MB-435
  GI50: > 10 µM (inactive)
SF-295
  GI50: > 10 µM (inactive)
PC-3
  GI50: 8.53 µM (inactive)
UACC-257
  GI50: > 10 µM (inactive)
M14
  GI50: > 10 µM (inactive)
OVCAR-3
  GI50: > 10 µM (inactive)
OVCAR-8
  GI50: > 10 µM (inactive)
ACHN
  GI50: > 10 µM (inactive)
SNB-19
  GI50: > 10 µM (inactive)
A549
  GI50: 7.67 µM (inactive)
U-251
  GI50: > 10 µM (inactive)
HT-29
  GI50: > 10 µM (inactive)
KM12
  GI50: > 10 µM (inactive)
LOX IMVI
  GI50: > 10 µM (inactive)
SK-MEL-28
  GI50: > 10 µM (inactive)
IGROV-1
  GI50: > 10 µM (inactive)
SK-MEL-2
  GI50: > 10 µM (inactive)
NCI-H226
  GI50: 6.12 µM (inactive)
HL-60
  GI50: > 10 µM (inactive)
SF-539
  GI50: > 10 µM (inactive)
OVCAR-5
  GI50: > 10 µM (inactive)
SF-268
  GI50: > 10 µM (inactive)

## c1ccc(/N=C2\SC3=NCCN3\C2=N/c2ccccc2)cc1
NCI/ADR-RES
  GI50: 28 µM (inactive)
CAKI-1
  GI50: 17.9 µM (inactive)
K562
  GI50: 4.24 µM (inactive)
Malme-3M
  GI50: > 10 µM (inactive)
MCF7
  GI50: 10.7 µM (inactive)
A498
  GI50: 19.8 µM (inactive)
CCRF-CEM
  GI50: 2.68 µM (inactive)
UACC-62
  GI50: 7.38 µM (inactive)
MOLT-4
  GI50: 3.47 µM (inactive)
T47D
  GI50: 9.12 µM (inactive)
HOP-62
  GI50: 18.7 µM (inactive)
HCC 2998
  GI50: 18.7 µM (inactive)
HCT-116
  GI50: 13.6 µM (inactive)
MDA-MB-231
  GI50: 22.9 µM (inactive)
SK-MEL-5
  GI50: 15.5 µM (inactive)
NCI-H522
  GI50: 13.6 µM (inactive)
SNB-75
  GI50: 18 µM (inactive)
SN12C
  GI50: 22.8 µM (inactive)
RXF 393
  GI50: 15.2 µM (inactive)
SR
  GI50: 21.4 µM (inactive)
NCI-H23
  GI50: 20.1 µM (inactive)
HOP-92
  GI50: 27.1 µM (inactive)
SK-OV-3
  GI50: 34 µM (inactive)
HCT-15
  GI50: 10 µM
RPMI-8226
  GI50: 16.3 µM (inactive)
NCI-H460
  GI50: 20.7 µM (inactive)
COLO 205
  GI50: 15.5 µM (inactive)
Hs-578T
  GI50: 36.9 µM (inactive)
MDA-N
  GI50: 15.7 µM (inactive)
DU-145
  GI50: 13.2 µM (inactive)
BT-549
  GI50: 15.2 µM (inactive)
UO-31
  GI50: 13.5 µM (inactive)
MDA-MB-435
  GI50: 15.6 µM (inactive)
SF-295
  GI50: 17.5 µM (inactive)
PC-3
  GI50: 13.1 µM (inactive)
M14
  GI50: 17.5 µM (inactive)
OVCAR-3
  GI50: 18.1 µM (inactive)
OVCAR-8
  GI50: 25.9 µM (inactive)
SNB-19
  GI50: 17.1 µM (inactive)
U-251
  GI50: 17.7 µM (inactive)
HT-29
  GI50: 16.4 µM (inactive)
KM12
  GI50: 15.9 µM (inactive)
SK-MEL-28
  GI50: 17 µM (inactive)
IGROV-1
  GI50: > 10 µM (inactive)
SK-MEL-2
  GI50: 19.9 µM (inactive)
NCI-H226
  GI50: 20.6 µM (inactive)
OVCAR-5
  GI50: 20.1 µM (inactive)
